Tests used:
[1] = tested on: BJ, THP-1, Caco-2 and Jurkat cells; assay: eGFP mRNA transfection, overall statements on the four cell lines; assay type: cell-based, human; conditions: formulated with co-lipid DOPE or DPyPE
Protocol: (§1) mRNA eGFP (996 nt, reference L-6101) from TriLink Technologies was used for the in vitro transfection experiments and expressed enhanced green fluorescent protein which is a common reporter gene (eGFP). This mRNA was capped with a Cap 0, polyadenylated and modified with 5-methylcytidine and pseudo-uridine.
(§2) One day before transfection, Caco-2, THP-1 or BJ Cells were seeded at 10 000, 25 000, or 5 000 cells per well (96-well plate format), respectively, in 125 μL of their respective complete medium and incubated at 37° C. in a 5% CO2 in air atmosphere. For Jurkat cells, 25 000 cells were seeded per well prior transfection. On the day of transfection 150 ng of mRNA was added in 11.5 μL of 5% glucose solution, mixed with a vortex and incubated for 5 minutes at rt. Then, 1 μL of 1 mM cationic liposomal formulation was added onto the diluted mRNA, mixed with a vortex and incubated for 15 minutes at rt. The formulated mRNA solution (12.5 μL) was added into the well and the plate was incubated for 24 hours at 37° C. in a 5% CO2 in air atmosphere.
(§3) For the GFP expression analysis, the cell culture medium was removed for the adherent cells and 50 μL of trypsin-EDTA (1×, Lonza) was added and the plate was incubated for 5 minutes at 37° C. 150 μL of complete medium were added to neutralize the trypsin, and the GFP expression was analysed (2000 events) by flow cytometry (Exc 488 nm, Em 520 nm) using a Guava easyCyte 6HT cytometer (Millipore).
(§4) All these new liposomal formulations (Table 1) were assessed to deliver mRNA expressing an enhanced green fluorescent protein (eGFP) as reporter gene in order to determine the gene expression and the transfection efficiency (Table 2). mRNA eGFP capped with a Cap 0 in 5′-end, polyadenylated in 3′-end and modified with 5-methylcytidine and pseudo-uridine was used in the transfection assay. The transfection assay was performed as described in the Experimental section where 150 ng of mRNA eGFP was complexed with 1 μL of 1 mM cationic liposomal formulations in a 5% glucose solution before the addition on the cells. One day post-transfection, the eGFP expression was analyzed by flow cytometry to determine the percentage of transfection. Four different cell lines were used in this assay from easy to transfect cells to hard to transfect cells with plasmid DNA, including human BJ skin fibroblast cells, THP-1 human peripheral blood monocytes, Caco-2 human colon epithelial cells and Jurkat Clone E6-1 human T lymphoblast cells, respectively.

[2] = tested on: THP-1 human peripheral blood monocyte cells; assay: eGFP mRNA transfection, THP-1 cells (96-well); assay type: cell-based; conditions: ratio 1/2, 150 ng eGFP mRNA, 24 h
Protocol: THP-1 (ATCC® TIB-202™) human peripheral blood monocyte cells were grown in RPMI-1640 with 10% FBS and supplemented with 10 mM HEPES buffer, 1 mM sodium pyruvate, 0.05 mM 2-mercaptoethanol, 2 mM glutamine, 100 U/mL of penicillin and 100 μg/mL of streptomycin at 37° C. in a 5% CO2 in air atmosphere.
as §1, §2, §3, §4

[3] = tested on: Caco-2 human colon epithelial cells; assay: eGFP mRNA transfection, Caco-2 cells (96-well); assay type: cell-based; conditions: co-lipid DOPE, ratio 1/2; 150 ng eGFP mRNA; 24 h
Protocol: Caco-2 (ATCC® HTB-37™) human colon epithelial cells were grown in DMEM 4.5 g/L glucose with 20% FBS supplemented with 1% non-essential amino acids, 1 mM sodium pyruvate, 2 mM glutamine and 100 U/mL of penicillin and 100 μg/mL of streptomycin at 37° C. in a 5% CO2 in air atmosphere.
as §1, §2, §3, §4

[4] = tested on: Jurkat Clone E6-1 human T lymphoblast cells; assay: eGFP mRNA transfection, Jurkat cells (96-well); assay type: cell-based; conditions: 150 ng eGFP mRNA, 24 h
Protocol: Jurkat Clone E6-1 (ATCC® TIB-152™) human T lymphoblast cells were grown in RPMI-1640 (LONZA) with 10% of FBS (EUROBIO) and supplemented with 2 mM Glutamine (LONZA), 100 U/mL of penicillin and 100 μg/mL of streptomycin (LONZA) at 37° C. in a 5% CO2 in air atmosphere.
as §1, §2, §3, §4

[5] = tested on: BJ human skin fibroblast cells; assay: eGFP mRNA transfection, BJ cells (96-well); assay type: cell-based; conditions: co-lipid DOPE, ratio 1/2; 150 ng eGFP mRNA; 24 h
Protocol: BJ (ATCC® CRL-2522™) human skin fibroblast cells were grown in Eagle's Minimum Essential Medium with 10% FBS and supplemented with 1% non-essential amino acids, 1 mM sodium pyruvate, 2 mM glutamine and 100 U/mL of penicillin and 100 μg/mL of streptomycin at 37° C. in a 5% CO2 in air atmosphere.
as §1, §2, §3, §4

[6] = co-lipid DOPE, ratio compound/co-lipid 1/2, 1 μL of 1 mM formulation, flow cytometry

SMILES: CCCCCCCCCCCCCCC(CCCCCCCCCCCCCC)[n+]1ccn(C)c1.[Cl-] [Compound W4.3, 1-methyl-3-(nonacosan-15-yl)-1H-imidazol-3-ium chloride]
- transfection activity (in words) [1]: reduced transfection activity
- Transfection efficiency (eGFP %) THP-1 ([2]; co-lipid DOPE): 30-40%
- Transfection efficiency (eGFP %) CaCO2 [3]: 5-10%
- Transfection efficiency (eGFP %) Jurkat [4, 6]: 0-1%
- Transfection efficiency (eGFP %) BJ [5]: 50-60%

SMILES: CCCCCCCCCCCCCCCCC(CCCCCCCCCCCCCCCC)[n+]1ccn(C)c1.[Cl-] [Compound W5.3, 1-methyl-3-(tritriacontan-17-yl)-1H-imidazol-3-ium chloride]
- transfection activity (in words) [1]: reduced transfection activity
- Transfection efficiency (eGFP %) THP-1 ([2]; co-lipid DOPE): 50-60%
- Transfection efficiency (eGFP %) CaCO2 [3]: 5-10%
- Transfection efficiency (eGFP %) Jurkat [4, 6]: 0-2%
- Transfection efficiency (eGFP %) BJ [5]: 60-70%

SMILES: CCCCCCCCCCCCCCCCCCC(CCCCCCCCCCCCCCCCCC)CCCCC(CCCCCCCCCCCCCCCCCC)[n+]1ccn(C)c1.[Cl-] (centres unmarked) [Compound W13.7, 1-methyl-3-(24-octadecyldotetracontan-19-yl)-1H-imidazol-3-ium chloride]
- Transfection efficiency (eGFP %) THP-1 ([2]; co-lipid DOPE): 80-85%
- Transfection efficiency (eGFP %) CaCO2 [3]: 75-80%
- Transfection efficiency (eGFP %) Jurkat [4, 6]: 10-20%
- Transfection efficiency (eGFP %) BJ [5]: 65-75%

SMILES: CCCCCCCC/C=C\CCCCCCCCC(CCCCC(CCCCCCCCCCCCCC)CCCCCCCCCCCCCC)[n+]1ccn(CCCC)c1.[Cl-] (centres unmarked) [Compound W20.7, 1-butyl-3-(24-tetradecyloctatriacont-9-en-19-yl)-1H-imidazol-3-ium chloride]
- Transfection efficiency (eGFP %) THP-1 ([2]; co-lipid DOPE): 80-90%
- Transfection efficiency (eGFP %) THP-1 ([2]; co-lipid DPyPE): 65-80%
- Transfection efficiency (eGFP %) CaCO2 [3]: 80-85%
- Transfection efficiency (eGFP %) Jurkat [4, 6]: 60-70%
- Transfection efficiency (eGFP %) Jurkat ([4]; co-lipid DPyPE, ratio 1/2): 50-60%
- Transfection efficiency (eGFP %) BJ [5]: 90-95%

SMILES: CCCCCCCCCCCCCCCCCCC(CCCCC(CCCCCCCCCCCCCC)CCCCCCCCCCCCCC)[n+]1ccn(CCO)c1.[Cl-] (centres unmarked) [Compound W25.7, 1-(2-hydroxyethyl)-3-(24-tetradecyloctatriacontan-19-yl)-1H-imidazol-3-ium chloride]
- transfection activity (in words) [1]: without really affecting the transfection activity
- Transfection efficiency (eGFP %) THP-1 ([2]; co-lipid DOPE): 80-85%
- Transfection efficiency (eGFP %) CaCO2 [3]: 45-55%
- Transfection efficiency (eGFP %) Jurkat [4, 6]: 25-35%
- Transfection efficiency (eGFP %) BJ [5]: 90-95%

SMILES: CCCCCCCCCCCCCCC(CCCCCCCCCCCCCC)CCCCC(CCCCCCCCCCCCCC)[n+]1ccn(CCO)c1.[Cl-] (centres unmarked) [Compound W26.7, 1-(2-hydroxyethyl)-3-(20-tetradecyltetratriacontan-15-yl)-1H-imidazol-3-ium chloride]
- transfection activity (in words) [1]: without really affecting the transfection activity
- Transfection efficiency (eGFP %) THP-1 ([2]; co-lipid DOPE): 70-80%
- Transfection efficiency (eGFP %) CaCO2 [3]: 50-55%
- Transfection efficiency (eGFP %) Jurkat [4, 6]: 10-15%
- Transfection efficiency (eGFP %) BJ [5]: 90-95%

SMILES: CCCCCCCC/C=C\CCCCCCCCC(CCCCC(CCCCCCCCCCCCCC)CCCCCCCCCCCCCC)[n+]1ccn(CC)c1.[Cl-] (centres unmarked) [Compound W27.7, 1-ethyl-3-(24-tetradecyloctatriacont-9-en-19-yl)-1H-imidazol-3-ium chloride]
- transfection activity (in words) [1]: without really affecting the transfection activity
- Transfection efficiency (eGFP %) THP-1 ([2]; co-lipid DOPE): 40-50%
- Transfection efficiency (eGFP %) CaCO2 [3]: 65-75%
- Transfection efficiency (eGFP %) Jurkat [4, 6]: 5-10%
- Transfection efficiency (eGFP %) BJ [5]: 90-95%

SMILES: CCCCCCCCCCCCCCCCCCC(CCCC(CCCCCCCCCCCCCC)CCCCCCCCCCCCCC)[n+]1ccn(C)c1.[Cl-] (centres unmarked) [Compound W28.7, 1-methyl-3-(15-tetradecylheptatriacontan-19-yl)-1H-imidazol-3-ium chloride]
- transfection activity (in words) [1]: without really affecting the transfection activity
- Transfection efficiency (eGFP %) THP-1 ([2]; co-lipid DOPE): 80-85%
- Transfection efficiency (eGFP %) CaCO2 [3]: 40-45%
- Transfection efficiency (eGFP %) Jurkat [4, 6]: 15-25%
- Transfection efficiency (eGFP %) BJ [5]: 90-95%

SMILES: CCCCCCCCCCCCCCCCC(CCCCCCCCCCCCCCCC)CCC[n+]1ccn(C)c1 [Compound W29.5, 1-methyl-3-(4-hexadecylicosyl)-1H-imidazol-3-ium chloride]
- transfection activity (in words) [1]: without really affecting the transfection activity
- Transfection efficiency (eGFP %) THP-1 ([2]; co-lipid DOPE): 30-40%
- Transfection efficiency (eGFP %) Jurkat [4, 6]: 10-15%

SMILES: CCCCCCCCCCCCCCCCCCC(CCCCCCCCCCCCCCCCCC)n1cc[n+](C)c1.[Cl-] [MONI, 1-Methyl-3-(1-Octadecyl-Nonadecyl)-3H-Imidazol-1-ium chloride, reference compound]
- Transfection efficiency (eGFP %) THP-1 ([2]; co-lipid DOPE): 30-40%
- Transfection efficiency (eGFP %) CaCO2 [3]: 5-10%
- Transfection efficiency (eGFP %) Jurkat [4, 6]: 5-10%
- Transfection efficiency (eGFP %) BJ [5]: 50-60%

From patent US20210386841A1, “COMPOSITIONS FOR TRANSFECTING mRNA INTO A CELL AND THEIR APPLICATIONS” (POLYPLUS TRANSFECTION, priority 2018, published 2021)
